Data as given in patent publication US11400084B2 (BioTheryX, Inc., priority 2018, dated 2022).
pIC50: −log10 of the molar value.

Experiments:
NHLF cells = test: Comparative study cell viability, NHLF cells (CTG2, 3 days); type: cell-based; details: Homo sapiens, 72 h, read-out: reduced cell viability IC50
Experimental: (§1) Molm-13 and MV-4-11 cells (both leukemia cell lines) were cultured in RPMI 1640 media supplemented with 10% fetal bovine serum, streptomycin and penicillin, and were plated in white walled 96-well plates at 20,000 cells/well. THLE-2 cells (T-antigen immortalized human liver epithelial cells) were cultured using BEGM Bullet kit (Lonza CC-3170) supplemented with 10% fetal bovine serum, streptomycin and penicillin, and were plated in white walled 96-well plates 5000 cells/well. NHLF (normal human lung fibroblast) cells were cultured in DMEM media supplemented with 10% fetal bovine serum, streptomycin and penicillin, and were plated in white walled 96-well plates at 5000 cells/well. Cells were incubated in DMSO (control) or the indicated compounds for 3 days at 37° C. and 5% CO2. Following the incubation period, 100 μL of CellTiterGlow2 (CTG2) reagent (CellTiter-Glo®2 Luminescent Cell Viability Assay, Promega (Madison, Wis.)) was added to each well. Following a 10 minutes incubation with shaking, luminescence was measured using the Victor Wallac Luminometer or the Envision 2105 multimode plate reader.

GSPT1 = target: T1, GSPT1 (Homo sapiens, UniProt P15170+Q96SW2); test: Western blot GSPT1 degradation assay in MV-4-11 cells; type: cell-based; details: for reduced levels of GSPT1: comparative study; for GSPT1 % Degradation at 1 μM: MV-4-11 cells, 6-8 hours
T1 construct: whole cell protein extracts were separated on 4-12% SDS-polyacrylamide gels; endogenous in cells; host or cells: MV-4-11
T1 sequence (P15170 whole entry): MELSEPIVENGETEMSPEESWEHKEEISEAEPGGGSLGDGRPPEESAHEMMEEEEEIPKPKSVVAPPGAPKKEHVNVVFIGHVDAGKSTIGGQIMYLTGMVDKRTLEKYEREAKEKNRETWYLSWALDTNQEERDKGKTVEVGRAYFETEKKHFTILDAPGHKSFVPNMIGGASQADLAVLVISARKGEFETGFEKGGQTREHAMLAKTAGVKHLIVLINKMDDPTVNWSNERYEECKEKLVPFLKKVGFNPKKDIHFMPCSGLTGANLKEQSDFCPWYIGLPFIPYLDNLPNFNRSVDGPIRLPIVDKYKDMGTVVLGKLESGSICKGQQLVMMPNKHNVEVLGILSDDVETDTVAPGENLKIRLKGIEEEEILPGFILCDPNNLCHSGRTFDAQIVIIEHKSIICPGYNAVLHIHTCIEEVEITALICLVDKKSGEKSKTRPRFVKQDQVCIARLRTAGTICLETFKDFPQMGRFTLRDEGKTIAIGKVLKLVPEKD
T1 sequence (Q96SW2 whole entry): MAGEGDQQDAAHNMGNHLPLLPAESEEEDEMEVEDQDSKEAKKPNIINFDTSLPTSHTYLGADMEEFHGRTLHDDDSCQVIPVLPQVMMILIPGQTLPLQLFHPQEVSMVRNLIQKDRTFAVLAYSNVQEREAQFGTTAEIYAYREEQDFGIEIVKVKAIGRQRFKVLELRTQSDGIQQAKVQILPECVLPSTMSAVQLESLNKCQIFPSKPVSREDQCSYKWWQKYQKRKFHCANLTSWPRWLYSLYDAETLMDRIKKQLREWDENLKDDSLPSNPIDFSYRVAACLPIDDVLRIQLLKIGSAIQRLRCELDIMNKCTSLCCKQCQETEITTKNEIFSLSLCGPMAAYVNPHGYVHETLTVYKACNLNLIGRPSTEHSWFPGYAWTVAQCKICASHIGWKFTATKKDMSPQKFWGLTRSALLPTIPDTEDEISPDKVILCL
T1 sequence (Q16531 whole entry partner): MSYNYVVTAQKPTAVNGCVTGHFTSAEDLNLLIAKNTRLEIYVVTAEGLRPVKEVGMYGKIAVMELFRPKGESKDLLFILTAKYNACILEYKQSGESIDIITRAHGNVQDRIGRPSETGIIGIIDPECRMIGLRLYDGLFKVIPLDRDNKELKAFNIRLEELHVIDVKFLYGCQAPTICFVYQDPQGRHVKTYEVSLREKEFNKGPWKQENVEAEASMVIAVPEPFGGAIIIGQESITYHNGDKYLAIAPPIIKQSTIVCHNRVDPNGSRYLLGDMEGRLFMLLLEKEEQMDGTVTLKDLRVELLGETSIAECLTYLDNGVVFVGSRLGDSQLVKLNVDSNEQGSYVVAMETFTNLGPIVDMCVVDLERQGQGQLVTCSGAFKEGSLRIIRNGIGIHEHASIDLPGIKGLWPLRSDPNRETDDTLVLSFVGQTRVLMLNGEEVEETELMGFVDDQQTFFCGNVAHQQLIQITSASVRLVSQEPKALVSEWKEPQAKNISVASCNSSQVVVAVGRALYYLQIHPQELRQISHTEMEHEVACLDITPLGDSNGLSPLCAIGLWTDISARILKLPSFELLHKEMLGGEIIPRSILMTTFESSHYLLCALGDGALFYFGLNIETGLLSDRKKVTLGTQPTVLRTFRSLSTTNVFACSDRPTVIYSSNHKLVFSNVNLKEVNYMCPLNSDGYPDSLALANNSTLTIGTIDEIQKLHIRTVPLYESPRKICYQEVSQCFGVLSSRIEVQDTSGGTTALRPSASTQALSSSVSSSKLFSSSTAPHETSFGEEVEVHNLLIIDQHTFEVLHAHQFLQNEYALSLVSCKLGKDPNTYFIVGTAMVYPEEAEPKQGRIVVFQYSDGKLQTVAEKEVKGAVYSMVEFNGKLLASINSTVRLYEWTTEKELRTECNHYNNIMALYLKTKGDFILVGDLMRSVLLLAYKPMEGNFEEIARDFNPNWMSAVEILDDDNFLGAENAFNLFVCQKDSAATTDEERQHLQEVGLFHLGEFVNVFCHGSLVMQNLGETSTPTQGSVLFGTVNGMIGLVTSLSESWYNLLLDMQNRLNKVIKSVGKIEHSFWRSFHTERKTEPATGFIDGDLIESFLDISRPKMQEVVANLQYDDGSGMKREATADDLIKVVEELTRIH
Experimental: (§2) MV-4-11 cells were grown in RPMI 1640 media supplemented with 10% fetal bovine serum, streptomycin and penicillin.
(§3) Cells were cultured at approximately 10^6 cells per mL and incubated in DMSO or the indicated compound for 6-8 hours. Whole cell extracts were prepared using RIPA buffer according to manufacturer's protocol (Pierce). Briefly, 3×10^6 cells were washed once in PBS, the cell pellets were resuspended in RIPA buffer and allowed to incubate for 15 minutes on ice. Cells debris was removed by centrifugation and the cleared whole cell lysates were transferred to new tubes for further analysis.
(§4) For Western blot analysis, whole cell protein extracts were separated on 4-12% SDS-polyacrylamide gels, transferred to nitrocellulose and probed with the indicated primary antibodies. Membranes were subsequently washed and probed with the appropriate IRDye secondary antibodies (LI-COR). The signal was detected using the Odyssey Imaging System (LI-COR).
(§5) The following antibodies were used in these studies: Anti-eRF3/GSPT1: Abcam, ab126090 (Cambridge, Mass.); Anti-Ikaros: Abcam, ab191394 (Cambridge, Mass.); Anti-CK1α: Abcam, ab108296 (Cambridge, Mass.); β-actin (8H10D10) mouse monoclonal antibody: Cell Signaling Technology, #3700 (Danvers, Mass.); IRDye 680RD Goat anti-rabbit antibody: LI-COR, 926-68071 (Lincoln, Nebr.); IRDye 800CW Goat anti-mouse antibody: LI-COR, 926-32210 (Lincoln, Nebr.).
(§6) In each of Tables 1-3, the % degradation values are reported as “A”, “B”, “C”, or “D.” “A” represents a % degradation value of less than 25% (value<25%); “B” represents a % degradation value of equal to or more than 25% and less than 50% (25%≤value<50%); “C” represents a % degradation value of equal to or more than 50% and less than 75% (50%≤value<75%); and “D” represents a % degradation value of equal to or more than 75% (value≥75%).

THLE-2 cells = test: Comparative study cell viability, THLE-2 cells (CTG2, 3 days); type: cell-based, human; details: for pIC50: Homo sapiens, 72 h, 3 days, read-out: reduced cell viability IC50; for IC50 concentration as fold of the IC50 concentration of Compound 1: relative to Compound 1
Experimental: as §1

CK1α = target: T2, CK1α (Homo sapiens, UniProt P48729+Q96SW2); test: Western blot CK1α degradation assay in MV-4-11 cells; type: cell-based; details: 6-8 hours
T2 construct: endogenous in cells; host or cells: MV-4-11
T2 sequence (P48729 whole entry): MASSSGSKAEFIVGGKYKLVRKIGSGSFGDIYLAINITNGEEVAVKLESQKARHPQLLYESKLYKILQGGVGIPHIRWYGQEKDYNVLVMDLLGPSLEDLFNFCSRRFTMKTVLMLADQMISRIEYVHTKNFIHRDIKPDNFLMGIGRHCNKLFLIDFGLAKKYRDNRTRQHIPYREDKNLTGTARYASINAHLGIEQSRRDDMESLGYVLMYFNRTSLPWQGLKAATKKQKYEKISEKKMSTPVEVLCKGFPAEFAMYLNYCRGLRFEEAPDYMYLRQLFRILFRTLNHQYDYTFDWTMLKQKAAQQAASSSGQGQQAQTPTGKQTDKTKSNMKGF
T2 sequence (Q96SW2 whole entry): as the sequence (Q96SW2 whole entry) above
T2 sequence (Q16531 whole entry partner): as the sequence (Q16531 whole entry partner) above
Experimental: as §2, §3, §4, §5, §6

MOLM-13 cells [1] = test: MOLM-13 cell viability assay (CellTiter-Glo 2, 3 days, 2500 cells/well); type: cell-based; details: Homo sapiens, MOLM-13, 72 h, percentage of DMSO control
Experimental: MOLM-13 cells were cultured in RPMI 1640 media supplemented with 10% fetal bovine serum, streptomycin and penicillin, and were plated in white walled 96-well plates at 2500 cells/well. Cells were incubated in DMSO (control) or the indicated compound for 3 days at 37° C. and 5% CO2. Following the incubation period, 100 μL of CellTiterGlow2 (CTG2) reagent (CellTiter-Glo®2 Luminescent Cell Viability Assay, Promega (Madison, Wis.)) was added to each well. Following a 10 minutes incubation with shaking, luminescence was measured using the EnVision Multimode plate reader.
The MOLM-13 cell viability values, measured as percentages of the DMSO control, are reported in Table 8 as “A”, “B”, “C”, or “D.” “A” represents a % viability value of less than 40% (value<40%). “B” represents a % viability value of equal to or more than 40% and less than 60% (40%≤value<60%). “C” represents a % viability value of equal to or more than 60% and less than 90% (60%≤value<90%). “D” represents a % viability value of equal or more than 90% (value≥90%).

MOLM-13 cells [2] = test: Comparative study cell viability, Molm-13 cells (CTG2, 3 days); type: cell-based; details: Homo sapiens, 72 h, read-out: reduced cell viability IC50
Experimental: as §1

IKAROS = target: T3, IKAROS (Homo sapiens, UniProt Q13422+Q96SW2); test: Western blot IKAROS degradation assay in MV-4-11 cells; type: cell-based; details: 6-8 hours
T3 construct: endogenous in cells; host or cells: MV-4-11
T3 sequence (Q13422 whole entry): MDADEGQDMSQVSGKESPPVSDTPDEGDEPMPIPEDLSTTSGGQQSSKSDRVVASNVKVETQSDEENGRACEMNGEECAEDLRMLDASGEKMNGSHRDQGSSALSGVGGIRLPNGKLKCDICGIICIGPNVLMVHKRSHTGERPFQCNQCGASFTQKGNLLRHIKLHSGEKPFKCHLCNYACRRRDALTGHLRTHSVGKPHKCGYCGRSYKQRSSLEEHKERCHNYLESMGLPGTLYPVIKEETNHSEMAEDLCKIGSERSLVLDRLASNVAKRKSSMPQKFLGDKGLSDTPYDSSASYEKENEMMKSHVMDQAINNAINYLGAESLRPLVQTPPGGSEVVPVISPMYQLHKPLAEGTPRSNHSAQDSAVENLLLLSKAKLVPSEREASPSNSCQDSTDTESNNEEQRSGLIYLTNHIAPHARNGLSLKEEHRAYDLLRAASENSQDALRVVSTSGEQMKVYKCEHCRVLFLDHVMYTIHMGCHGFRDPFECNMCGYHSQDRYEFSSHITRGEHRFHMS
T3 sequence (Q96SW2 whole entry): as the sequence (Q96SW2 whole entry) above
T3 sequence (Q16531 whole entry partner): as the sequence (Q16531 whole entry partner) above
Experimental: as §2, §3, §4, §5, §6

MV-4-11 cells = test: Comparative study cell viability, MV-4-11 cells (CTG2, 3 days); type: cell-based; details: for pIC50: Homo sapiens, MV4-11, 72 h, 3 days, read-out: reduced cell viability IC50; for IC50 concentration as fold of the IC50 concentration of Compound 1: relative to Compound 1
Experimental: as §1

PBMCs = test: Comparative study cell viability, LPS-induced PBMCs (CTG); type: cell-based; details: PBMC, LPS 18-24 hr, read-out: reduced cell viability IC50
Experimental: Frozen […] blood mononuclear cells (PBMCs) were purchased from AllCells. Cells were quick thawed, washed with RPMI-1640/10% FBS/1% Penicillin/1% Streptomycin and plated in 96 well plates at 200,000 cells/well. Cells were pretreated with DMSO or the indicated compound for 1 hr and then induced with 100 ng/mL lipopolysaccharide (LPS) for 18-24 hr. Following the incubation period, 100 μL of CTG reagent was added to each well. Plates were incubated on the shaker at RT for 2 min. Following a 10 min incubation without shaking, luminescence was measured using the Envision 2105 multimode plate reader.

IL-2 = IL-2 fold-change assay, anti-CD3 stimulated PBMCs, Mesoscale; type: cell-based; details: Homo sapiens, PBMC, 24 h, fold difference from the DMSO control
Experimental: For the IL-2 analysis, 96 well plates were precoated with 1 μg/mL anti-human CD3 antibody (OKT3, eBioscience Inc., San Diego, Calif.). After washing with PBS, the indicated compound was added (50 μL/well) followed by PBMCs diluted at 3-4 million cells/mL (150 μL/well). Plates were incubated for 24 h and the supernatants collected for Mesoscale IL-2 analysis. IL-2 activity is measured as fold difference from the DMSO control.
In Table 7, the fold-change values are reported as “A”, “B”, “C”, or “D”. “A” represents a fold-change value of equal to or less than 1 (value≤1); “B” represents a fold-change value of more than 1 and equal to or less than 2 (1<value≤2); “C” represents a fold-change value of more than 2 and equal to or less than 3 (2<value≤3); and “D” represents a fold-change value of more than 3 (value>3).

TNFα = test: TNF-α inhibition assay, LPS-induced PBMCs or CD14+ monocytes, Meso Scale; type: cell-based; details: 100 ng/mL LPS 18-24 h
Experimental: (§7) Either frozen primary blood mononuclear cells (PBMCs) or frozen CD14+ mobilized peripheral blood monocytes were purchased from AllCells (PB003F, Normal Peripheral Blood MNC (Alameda, Calif.)). Cells were quick thawed, washed 1-time with RPMI-1640 (10% FBS/1% Pen-Strep) and plated in 96 well plates at 200,000 cells per well. Cells were pretreated with DMSO only or with the indicated compound for 1 h and then induced with 100 ng/mL lipopolysaccharide (LPS) for 18-24 h. The supernatant was analyzed for IL-1β, IL-6, and TNFα, using Meso Scale assay according to manufacturer's protocol. The negative control wells were treated with DMSO.

IL-1β = IL-1β inhibition assay, LPS-induced PBMCs or CD14+ monocytes, Meso Scale; type: cell-based; details: 100 ng/mL LPS 18-24 h
Experimental: as §7

With Cc1ccc(NCC(=O)NCc2ccc3c(c2)CN(C2CCC(=O)NC2=O)C3=O)cc1Cl (stereo not drawn) [Compound 1, 2-((3-Chloro-4-methylphenyl)amino)-N-((2-(2,6-dioxopiperidin-3-yl)-1-oxoisoindolin-5-yl)methyl)acetamide] the pIC50 (NHLF cells) was under 5.00, the “reduced levels of GSPT1” value (GSPT1; 0.1 μM) was 92% and the “GSPT1 % Degradation at 1 μM” value (GSPT1; 1 μM) was “D (a % degradation value of equal to or more than 75% (value≥75%))”. The “reduced levels of GSPT1” value (GSPT1; 1 μM) was 93%, the pIC50 (THLE-2 cells) was under 5.00 and the “CK1α % Degradation at 1 μM” value (CK1α) was “B (a % degradation value of equal to or more than 25% and less than 50% (25%≤value<50%))”. The viability at 1 µM (MOLM-13 cells [1]) was over 90%, the pIC50 (MOLM-13 cells [2]) was 7.13 and the “IKAROS % Degradation at 1 μM” value (IKAROS) was “D (a % degradation value of equal to or more than 75% (value≥75%))”. The pIC50 (MV-4-11 cells) was 7.71 and the pIC50 (PBMCs) was under 5.00.

With CC(C)(C)c1ccc(NCC(=O)NCc2ccc3c(c2)CN(C2CCC(=O)NC2=O)C3=O)cc1 (stereo not drawn) [Compound 17, 2-((4-(tert-butyl)phenyl)amino)-N-((2-(2,6-dioxopiperidin-3-yl)-1-oxoisoindolin-5-yl)methyl)acetamide] the “GSPT1 % Degradation at 1 μM” value (GSPT1; 1 μM) was “D (a % degradation value of equal to or more than 75% (value≥75%))”, the “IC50 concentration as fold of the IC50 concentration of Compound 1” value (“IC50 concentration as fold” for short) (THLE-2 cells) was “about 1.5 fold” and the “CK1α % Degradation at 1 μM” value (CK1α) was “C (a % degradation value of equal to or more than 50% and less than 75% (50%≤value<75%))”. The viability at 1 µM (MOLM-13 cells [1]) was 60 to 90%, the “IKAROS % Degradation at 1 μM” value (IKAROS) was “C (a % degradation value of equal to or more than 50% and less than 75% (50%≤value<75%))” and the “IC50 concentration as fold” value (MV-4-11 cells) was “about 1 fold”.

For O=C(CNc1ccccc1)NCc1ccc2c(c1)CN(C1CCC(=O)NC1=O)C2=O (stereo not drawn) [Compound 16, N-((2-(2,6-dioxopiperidin-3-yl)-1-oxoisoindolin-5-yl)methyl)-2-(phenylamino)acetamide], the “GSPT1 % Degradation at 1 μM” value (GSPT1; 1 μM) was “B (a % degradation value of equal to or more than 25% and less than 50% (25%≤value<50%))”, the “IC50 concentration as fold” value (THLE-2 cells) was “over 3 fold” and the viability at 1 µM (MOLM-13 cells [1]) was 60 to 90%. For the same compound, the “IC50 concentration as fold” value (MV-4-11 cells) was “over 2 fold”.

For Cc1ccc(NCC(=O)NCc2ccc3c(c2)CN(C2CCC(=O)NC2=O)C3=O)cc1N(C)C (stereo not drawn) [Compound 18, 2-((3-(dimethylamino)-4-methylphenyl)amino)-N-((2-(2,6-dioxopiperidin-3-yl)-1-oxoisoindolin-5-yl)methyl)acetamide], the “GSPT1 % Degradation at 1 μM” value (GSPT1; 1 μM) was “D (a % degradation value of equal to or more than 75% (value≥75%))”, the “IC50 concentration as fold” value (THLE-2 cells) was “about 1 fold” and the fold induction at 1 µM (IL-2) was at most 1. For the same compound, the inhibition at 1 µM (TNFα) was 30 to 50%, the “CK1α % Degradation at 1 μM” value (CK1α) was “B (a % degradation value of equal to or more than 25% and less than 50% (25%≤value<50%))” and the viability at 1 µM (MOLM-13 cells [1]) was over 90%. The inhibition at 1 µM (IL-1β) was 30 to 50% and the “IC50 concentration as fold” value (MV-4-11 cells) was “about 0.5 fold”.

In the case of Cc1ccc(NC(=O)NCc2ccc3c(c2)CN(C2CCC(=O)NC2=O)C3=O)cc1Cl (stereo not drawn) [Compound A, reference compound], the pIC50 (NHLF cells) was 7.50, the “reduced levels of GSPT1” value (GSPT1; 0.1 μM) was 82% and the “reduced levels of GSPT1” value (GSPT1; 1 μM) was 98%. For the same compound, the pIC50 (THLE-2 cells) was 8.21, the pIC50 (MOLM-13 cells [2]) was 9.19 and the pIC50 (MV-4-11 cells) was 8.73. It also gave a pIC50 (PBMCs) of 8.22.
